From patent US12049474B2, “Nucleoside prodrugs and uses related thereto” (Emory University, priority 2019, dated 2024)
Structures can show the parent of a compound that is named as a salt. Where two headings read alike, the source gives them in different places.

Columns and labels:
CYP3A4 = CYP3A4 (Homo sapiens (Human), UniProt P08684); assay: Fluorometric CYP450 enzyme inhibition assay, CYP3A4; assay type: biochemical; details: human recombinant CYP3A4, BFC substrate; read-out: CYP450 IC50 3A4
Sequence of CYP3A4 (P08684 whole entry, canonical isoform): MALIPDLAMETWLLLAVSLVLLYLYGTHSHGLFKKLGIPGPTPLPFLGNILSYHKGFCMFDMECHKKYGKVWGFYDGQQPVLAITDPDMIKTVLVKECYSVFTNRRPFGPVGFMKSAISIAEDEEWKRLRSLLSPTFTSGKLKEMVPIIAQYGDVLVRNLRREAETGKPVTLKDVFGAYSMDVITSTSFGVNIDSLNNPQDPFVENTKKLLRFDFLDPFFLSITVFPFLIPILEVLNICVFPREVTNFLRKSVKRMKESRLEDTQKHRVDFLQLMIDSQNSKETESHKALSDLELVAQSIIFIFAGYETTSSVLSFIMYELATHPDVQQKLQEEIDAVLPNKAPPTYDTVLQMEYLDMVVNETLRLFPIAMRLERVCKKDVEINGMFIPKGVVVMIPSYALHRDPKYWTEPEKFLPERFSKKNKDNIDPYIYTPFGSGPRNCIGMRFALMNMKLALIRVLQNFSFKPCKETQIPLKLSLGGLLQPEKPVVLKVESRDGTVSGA
Method: (§1) The CYP450 inhibition assays utilized microsomes from insect cells expressing human recombinant individual cDNA-expressed CYP isoforms 3A4 and 2D6, as well as the fluorogenic probe that produces fluorescent metabolite. Standard inhibitors were co-incubated with fluorogenic substrates and their inhibitory potential (IC50) was determined. Assay conditions in terms of CYP450 protein concentration and time of incubation were standardized, enzyme kinetics parameters of each fluorescent probe substrate were estimated and IC50 values of inhibitors were determined and validated on different days to check reproducibility.
(§2) A 100 mM sodium phosphate buffer was prepared and adjusted to pH 7.4. In a separate falcon tube, a 2× enzyme/substrate (E/S) solution was prepared in phosphate buffer. The final concentration of CYP2D6 (CORNING®) and […] (AMMC) was 10 nM and 4 μM, and CYP3A4 (CORNING®) and 7-benzyloxy-4-(trifluoromethyl) coumarin (BFC) was 20 nM and 40 μM, respectively. In a separate falcon tube, a 2×NADPH regenerating system (NRS) was prepared in phosphate buffer. The final concentration for each component in the assay was as follows: • CYP2D6 assay: 0.008 mM NADPH, 3.3 mM glucose 6-phosphate, 0.4 U of glucose-6-phosphate dehydrogenase per mL
Both enzymatic assays were conducted in a 96-well microtiter plate (Black, CORNING® COSTAR®) with a final volume of 100 μL. Preparation of the plate began with the addition of 74 μL of the E/S in the first well, and 50 μL to all subsequent wells (from 2-11). […] A 1:3 serial dilution of the test compound was conducted by removing 25 μL from the first well and diluting it with the second and so forth until the tenth row. Final concentrations yielded a range from 200 μM-0.01 μM. Well no. 11 contained no inhibitor, and well no. 12 contained no enzyme. Both were used as controls for background fluorescence. The plate was incubated for 30 min at 37° C. After incubation, the reaction was initiated by the addition of 50 μL of the 2×NRS to each well.
Immediately (within 1 min) the fluorescence was measured using a microplate reader (BIOTEK® Synergy Neo2). […] Data was exported and analyzed using Graph Pad Prism 7. […] The IC50 value was derived after the data was fitted on a 10-point curve using a four-parameter logistic regression model.

CYP2D6 = CYP2D6 (Homo sapiens (Human), UniProt P10635); assay: biochemical; assay type: biochemical; details: human recombinant CYP2D6, AMMC substrate; read-out: CYP450 IC50 2D6
Sequence of CYP2D6 (P10635 whole entry): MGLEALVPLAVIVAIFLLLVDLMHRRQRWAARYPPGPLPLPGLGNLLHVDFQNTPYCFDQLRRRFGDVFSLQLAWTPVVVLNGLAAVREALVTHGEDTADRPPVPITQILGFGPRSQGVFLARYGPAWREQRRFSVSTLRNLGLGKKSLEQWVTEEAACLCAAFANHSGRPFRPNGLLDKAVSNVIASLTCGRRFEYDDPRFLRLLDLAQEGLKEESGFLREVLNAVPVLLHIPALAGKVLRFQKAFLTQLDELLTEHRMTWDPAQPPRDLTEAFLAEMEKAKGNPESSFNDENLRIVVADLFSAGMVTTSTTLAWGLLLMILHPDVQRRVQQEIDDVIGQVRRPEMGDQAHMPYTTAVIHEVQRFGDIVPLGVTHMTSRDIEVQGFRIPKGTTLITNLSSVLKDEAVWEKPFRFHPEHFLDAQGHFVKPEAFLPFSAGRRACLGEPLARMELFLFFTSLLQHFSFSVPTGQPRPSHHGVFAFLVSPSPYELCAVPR
Method: as §1, §2
Both enzymatic assays were conducted in a 96-well microtiter plate (Black, CORNING® COSTAR®) with a final volume of 100 μL. Preparation of the plate began with the addition of 74 μL of the E/S in the first well, and 50 μL to all subsequent wells (from 2-11). The test compounds (1 μL) were dissolved in the first well to give the first row a final volume of 75 μL. A 1:3 serial dilution of the test compound was conducted by removing 25 μL from the first well and diluting it with the second and so forth until the tenth row. Final concentrations yielded a range from 200 μM-0.01 μM. Well no. 11 contained no inhibitor, and well no. 12 contained no enzyme. Both were used as controls for background fluorescence. The plate was incubated for 30 min at 37° C. After incubation, the reaction was initiated by the addition of 50 μL of the 2×NRS to each well.
Immediately (within 1 min) the fluorescence was measured using a microplate reader (BIOTEK® Synergy Neo2). CYP2D6 was monitored at Ex/Em=410/460 nm, and CYP3A4 monitored at Ex/Em=410/538 nm in kinetic mode that scanned every 5 min for 60 mins. Data was exported and analyzed using Graph Pad Prism 7. […] The IC50 value was derived after the data was fitted on a 10-point curve using a four-parameter logistic regression model.

[1] = Metabolic stability assay in human liver microsomes (HLM); assay type: in vitro ADME; details: NADPH, sampled 0-120 min; for HLM t1/2: 3 μM test compound
Method: The LC-MS/MS analysis was performed using Agilent 1260 Infinity II HPLC, coupled with an Agilent G6460 triple quadrupole mass spectrometer (Agilent Technologies, USA). All the data were acquired employing Agilent 6460 Quantitative Analysis data processing software.
Reverse-phase HPLC separation for each compound was achieved either on an Agilent Porshell 120 EC-C8 column (2.1×50 mm, 2.7 μm), or on an Agilent Zorbax XDB C18 column (2.1×50 mm, 3.5 μm) with a mobile phase composed of methanol-water-formic acid or acetonitrile-water-formic acid (0.1%) at a flow rate of 0.5 mL/min (changes for some compounds). Each method was developed in the presence of an internal standard (ISTD) d5-7-ethoxy coumarin. The column temperature was maintained at 40° C. for most of the samples otherwise noted. The detection was operated in the Agilent JetStream electrospray positive ionization using multiple reaction monitoring mode (MRM).
Other MS conditions were as follows: dwell time 100 ms; gas flow 10 L/min; nebulizer pressure 45 psi; delta EMV 200 V; fragmentor voltage and collision energy for individual compounds vary.
Test compounds were dissolved in 100% DMSO or 100% MeOH to make 10 mM stock solutions. Verapamil (Sigma Aldrich) aided as a positive control and was dissolved in 100% DMSO to make 10 mM stock solutions. The 10 mM stock solution of test and control compounds were further diluted in potassium phosphate buffer (100 mM, pH 7.4) to 500 μM to ensure the organic solvent content was <0.2%. Human liver microsomes (HLMs) were purchased from Xenotech at 20 mg/mL. NADPH (Sigma Aldrich) 10 mM stocks were prepared in deionized water.
The HLM assay was prepared in a 1.5 mL Eppendorf tube with a final volume of 1100 μL for duplicate runs. Each reaction contained phosphate buffer (928.4 μL), liver microsomes (55 μL), and test compound resulting in a final concentration of 3 μM (6.6 μL of 500 μM). The reaction was initiated with 110 μL of 10 mM NADPH. Aliquots (100 μL) were removed in duplicate at 0, 15, 30, 60, 120 min (for prodrug compounds) and 0, 5, 10, 15, 30 min (verapamil, positive control compound) time intervals and quenched in cold […] of 100% methanol which contained internal standard (ISTD: d5-7-ethoxy coumarin 4 μM). Before centrifugation each of the aliquoted tubes were vortexed to make sure compounds were in the solution. The aliquots were centrifuged at 12,000 g for 5 min and the supernatant removed and placed in an LC-MS vial. Each time point was assessed using LC-MS and the area, based on the extracted ion, was integrated with respect to the ISTD. Positive controls were conducted at a final volume of 550 μL to give each time point in a single run. A no-NADPH negative control with test or control compound was performed in a single run (150 μL) at the longest time point. Controls were processed and analyzed like the test compounds. Each time point was run in duplicates followed by in-between blank washes to avoid the carryover and to equilibrate the column.

HIV = assay: microbe, parasite or virus in culture; assay type: cell-based; details: italicized results: absence of human serum albumin
[2] = dogs, cited from earlier work
HEK293 cells = details: 50% cytotoxic concentration; italicized results: absence of human serum albumin

| SMILES | IC50 (CYP3A4) [µM] | IC50 (CYP2D6) [µM] | half-life at 3 µM ([1]; pH 7.4, 3 μM test compound, read-out: HLM t1/2) [min] | IC50 (HIV; Human immunodeficiency virus 1, HEK293, read-out: HIV IC50, pseudoviral particles, HEK293 cells) [µM] | IC50 (HIV; read-out: HIV IC50, pseudoviral particles, HEK293 cells) [µM] | fraction of dose converted to plasma TFV ([2]; single oral dose) [%] | fraction of dose sequestered for toxic side effects ([2]; single oral dose) [%] | fraction of dose that achieved access to plasma unscathed ([2]; single oral dose) [%] | fraction of a single oral dose extracted by the liver [2] [%] | CC50 (HEK293 cells) [µM] | HLM t1/2 [1] [min] | melting point |
| --- | --- | --- | --- | --- | --- | --- | --- | --- | --- | --- | --- | --- |
| CC(C)OC(=O)[C@H](C)N[P@](=O)(CO[C@H](C)Cn1cnc2c(N)ncnc21)Oc1ccccc1 [TAF, tenofovir alafenamide fumarate] | 21 | > 50 | 26 | 0.002 | 0.001 | 17 | 82 | 18 | 65 |  |  |  |
| CCCCCCCCCCCCCCCOP(=O)(O)CO[C@H](C)Cn1cnc2c(N)ncnc21.N [MD-1-106, Ammonium Pentadecyl (R)-(((1-(6-amino-9H-purin-9-yl)propan-2-yl)oxy)methyl)phosphonate] | 54.9 | 22 |  |  |  |  |  |  |  | > 100 | 13 | 162 to 190 °C (dec.) |
| CCCCCCCCCCCCCCCCCCOP(=O)(O)CO[C@H](C)Cn1cnc2c(N)ncnc21.N [MD-1-105, Ammonium Octadecyl (R)-(((1-(6-amino-9H-purin-9-yl)propan-2-yl)oxy)methyl)phosphonate] | 52.9 | 20 |  |  |  |  |  |  |  | 84.1 | 13 | 154 to 184 °C (dec.) |
